Measured values: patent US20250236597A1, “DEUTERATED BENZODIAZEPINE ANALOGS AND METHODS OF USE IN TREATING CANCER” (University of Cincinnati, priority 2022, published 2025)

Assays:
Type in all cases: cell-based
[1] = system: A375 human melanoma cells; test: Cytotoxicity assay (CellTiter 96 AQueous One), A375 cells; conditions: A-375, 72 h, read-out: Cytotoxicity of deuterated compounds (IC50, μM)
Protocol: (§1) Cytotoxicity of DiD3, DiD5, QHD3, QHD5, KRMD3, and KRMD5 was assessed in A375 human melanoma cells, LN18 human glioma cells, and H1792 human NSCLC cells.
(§2) Each compound powder was weighed and dissolved in DMSO to a concentration of 40 mM. Dissolved compounds were stored at 4° C. Drug dilutions were prepared in phenol free medium as follows:
(§3) Cell culture process: Optimum cell number for each cell line was determined and the cell number giving about 1.0 OD value after one hour of incubation with the CellTiter 96® AQueous One Solution Cell Proliferation Assay reagent (Promega) was selected for cell proliferation experiments. On Day 1, cells were trypsinized, counted, and diluted to: A375 human melanoma cells: 30000 cells/mL (3000 cells/100 μL or 3000 cells/well); LN18 human glioma cells: 50000 cells/mL (5000 cells/100 μL or 5000 cells/well); and H1792 human NSCLC cells: 12000 cells/mL (1200 cells/100 μL or 1200 cells/well).
(§4) 100 μL of cell suspension was added to 96 well plates. Rows B to G and columns 2 to 11 were seeded with cells. Outer wells around the plate were filled with 100 μL phosphate buffered saline (PBS), except wells A2 to A6, which were filled with medium without cells. Cells were then incubated 24 hours and allowed to attach.
(§5) On Day 2: drug and controls were added to the plated cells as follows: background control: medium in wells A2 to A6 was aspirated and replaced with 100 μL fresh medium; control and test dilutions: medium was carefully aspirated and 100 μL of DMSO control or diluted drug was added to 5 consecutive wells in the same row. After drug addition, plates were returned to the incubator for 48 to 72 hours.
(§6) On Day 5 or 6:20 μL of CellTiter 96® AQueous One Solution Cell Proliferation Assay reagent (Promega) was added to each control or test well, incubated 1 to 2 hours, and then OD was acquired at 490 nm.
(§7) Data analysis: the average OD from the five wells containing medium and no cells (A2 to A6) was calculated and the value subtracted from each individual OD reading. The OD readings for each drug dilution was normalized to DMSO control, set as 100% cell viability/proliferation. Log drug concentration versus percentage viability was then plotted using GraphPad Prism.

[2] = system: tumors; test: Activity summary of exemplary deuterated compounds (Table 1); conditions: Table 1 summary, result in words
[3] = system: H1792 human NSCLC cells; test: Cytotoxicity assay (CellTiter 96 AQueous One), H1792 cells; conditions: NCI-H1792, 72 h, read-out: Cytotoxicity of deuterated compounds (IC50, μM)
Protocol: as §1, §2, §3, §4, §5, §6, §7

[4] = system: LN18 human glioma cells; test: Cytotoxicity assay (CellTiter 96 AQueous One), LN18 cells; conditions: LN-18, 72 h, read-out: Cytotoxicity of deuterated compounds (IC50, μM)
Protocol: as §1, §2, §3, §4, §5, §6, §7

[5] = system: human patient-derived cancer cell lines; test: Cytotoxicity against the tested cancer cell lines (overall statement); conditions: A375, LN18 and H1792 cells, result in words
Protocol: as §1, §2, §3
100 μL of cell suspension was added to 96 well plates. Rows B to G and columns 2 to 11 were seeded with cells. […]
Data analysis: the average OD from the five wells containing medium and no cells (A2 to A6) was calculated and the value subtracted from each individual OD reading. The OD readings for each drug dilution was normalized to DMSO control, set as 100% cell viability/proliferation. […]

Row | Structure (SMILES) | IC50 [1] [µM] | Activity [2] | IC50 [3] [µM] | IC50 [4] [µM] | Cytotoxicity against the tested human patient-derived cancer cell lines [5]
1 | [2H]C1([2H])N=C(c2ccccc2F)c2cc(C#C)ccc2N(C([2H])([2H])[2H])C1=O [KRMD5] | 0.63 | Active against tumors | 2.52 | 2.67 | –
2 | [2H]C([2H])([2H])N1C(=O)CN=C(c2ccccc2)c2cc(C#C)ccc21 [QHD3] | 0.31 | Active against tumors | 1.75 | 1.81 | –
3 | [2H]C([2H])([2H])N1C(=O)CN=C(c2ccccc2)c2cc(Cl)ccc21 [DiD3] | – | Inactive | – | – | non-cytotoxic
4 | [2H]C([2H])([2H])N1C(=O)CN=C(c2ccccc2F)c2cc(C#C)ccc21 [KRMD3] | 0.35 | Active against tumors | 2.13 | 2.43 | –
5 | [2H]C1([2H])N=C(c2ccccc2)c2cc(Cl)ccc2N(C([2H])([2H])[2H])C1=O [DiD5] | – | Inactive | – | – | non-cytotoxic
6 | [2H]C1([2H])N=C(c2ccccc2)c2cc(C#C)ccc2N(C([2H])([2H])[2H])C1=O [QHD5] | 0.46 | Active against tumors | 1.98 | 2.51 | –
